Ki data for 1 compound are collected here from paper PMC9865052, “Miltefosine and Nifuratel Combination: A Promising Therapy for the Treatment of Leishmania donovani Visceral Leishmaniasis” (International Journal of Molecular Sciences, 2023).

The target in the assay is T1, Trypanothione reductase (TR) (Leishmania donovani, UniProt P39050).
T1 construct: gene TPR; native enzyme in cell extracts of L. donovani axenic amastigotes
The assay is described as follows: DTNB-coupled colorimetric TR activity assay ([…] nm) in L. donovani cell extract; Lineweaver-Burk analysis. It is filed as biochemical.

T1 sequence (P39050 whole entry): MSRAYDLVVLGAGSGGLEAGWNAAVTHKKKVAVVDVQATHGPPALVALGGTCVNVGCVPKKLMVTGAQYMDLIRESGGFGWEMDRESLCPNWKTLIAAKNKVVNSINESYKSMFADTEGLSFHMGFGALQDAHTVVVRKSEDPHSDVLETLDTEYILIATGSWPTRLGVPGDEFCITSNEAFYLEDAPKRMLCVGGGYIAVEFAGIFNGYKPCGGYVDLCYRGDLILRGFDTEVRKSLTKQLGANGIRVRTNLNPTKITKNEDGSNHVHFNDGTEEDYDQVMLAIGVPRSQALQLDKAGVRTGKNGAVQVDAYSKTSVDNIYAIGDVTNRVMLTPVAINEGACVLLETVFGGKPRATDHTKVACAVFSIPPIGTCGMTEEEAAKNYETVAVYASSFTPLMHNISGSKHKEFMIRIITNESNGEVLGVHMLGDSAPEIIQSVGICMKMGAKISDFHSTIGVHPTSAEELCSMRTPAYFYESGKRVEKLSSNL

As for `CSCC1CN(/N=C/c2ccc([N+](=O)[O-])o2)C(=O)O1` (stereo not shown) [NFT, nifuratel], the Ki stood at 3.15 ± 0.5 µM.
